In patent publication US5244898A, “Benzoheterocyclic compounds” (Otsuka Pharmaceutical Co., Ltd., priority 1991, dated 1993):
Structures can show the parent of a compound that is named as a salt.

These molecules were tested against T1, V2 Receptor (Rattus norvegicus, UniProt Q00788) (assay: V2 Receptor Binding Assay ([3H]-Arg-vasopressin, rat kidney plasma membrane)). Conditions: 4° C., pH 8.0.
T1 construct: rat kidney plasma membrane preparations; from tissue; host or cells: rat kidney plasma membranes
T1 sequence (Q00788 whole entry): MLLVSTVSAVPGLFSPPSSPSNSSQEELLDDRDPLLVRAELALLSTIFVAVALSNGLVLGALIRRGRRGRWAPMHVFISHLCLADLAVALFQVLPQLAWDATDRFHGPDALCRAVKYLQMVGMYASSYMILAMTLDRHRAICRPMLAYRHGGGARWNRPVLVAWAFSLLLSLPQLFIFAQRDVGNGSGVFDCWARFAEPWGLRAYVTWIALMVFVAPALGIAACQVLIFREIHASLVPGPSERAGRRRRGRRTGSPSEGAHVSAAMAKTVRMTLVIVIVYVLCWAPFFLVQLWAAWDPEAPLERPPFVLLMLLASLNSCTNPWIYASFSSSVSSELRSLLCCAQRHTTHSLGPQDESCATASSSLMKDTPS
Method: Chem., 253, 3211 (1978)], the plasma membrane (100000 dpm, 4×10^-10M) of [^3 H]-Arg-vasopressin and a test compound (0.6 mg, 10^-10 -10^-5 M) are incubated at 4° C. for 3 hours in 100 mM Tris-HCl buffer pH: 8.0 (250 μl ) containing 5 mM MgCl2, 1 mM EDTA and 0.1 % BSA. After incubation, the mixture is filtered using the glass filter (GF/F) so as to separate the membrane preparation combining with vasopressin and then washed twice with the buffer (5 ml). This glass filter is taken out and mixed with liquid scintillation cocktail. The amount of [^3 H]-vasopressin combining with the membrane is measured by liquid scintillation counter and the rate of the inhibitory effect of the test compound is estimated according to the following equation. [formula]
C1 : The amount of [^3 H]-vasopressin combining with the membrane in the presence of the test compound of a known amount.
C0 : The amount of [^3 H]-vasopressin combining with the membrane in the absence of the test compound.
B1 : The amount of [3H-vasopressin combining with the membrane in the presence of the excess amount of vasopressin (10^-6 M).
The results are expressed as IC50 value, which is the concentration of the test compound required to achieve the inhibitory effect in the rate of 50%.

Row | Compound | IC50
1 | CSCC[C@H](N)C(=O)OC1CCCN(C(=O)c2ccc(NC(=O)c3ccccc3C)cc2Cl)c2ccccc21 (single isomer, unassigned) [Test Compound 10, 5-(L-Methionyloxy)-1-[2-chloro-4-(2-methylbenzoylamino)benzoyl]-2,3,4,5-tetrahydro-1H-benzazepine hydrochloride] | 83 nM
2 | Cc1ccccc1C(=O)Nc1ccc(C(=O)N2CCCC(OC(=O)[C@@H]3CCCN3)c3ccccc32)c(Cl)c1 (single isomer, unassigned) [Test Compound 12, 5-(L-Prolyloxy)-1-[2-chloro-4-(2-methylbenzoylamino)benzoyl]-2,3,4,5-tetrahydro-1H-benzazepine hydrochloride] | 9 nM
3 | CN(C)C1CCCN(C(=O)c2ccc(NC(=O)Cc3ccccc3Cl)cc2)c2ccccc21 (centres unmarked) [Test Compound 3, 5-Dimethylamino-1-{4-[2-(2-chlorophenyl)acetylamino]benzoyl}-2,3,4,5-tetrahydro-1H-benzazepine] | 61 nM
4 | COc1ccccc1CC(=O)Nc1ccc(C(=O)N2CCCC(N(C)C)c3ccccc32)cc1 (centres unmarked) [Test Compound 4, 5-Dimethylamino-1-{4-[2-(2-methoxyphenyl)acetylamino]benzoyl}-2,3,4,5-tetrahydro-1H-benzazepine] | 61 nM
5 | CN(C)C1CCCN(C(=O)c2ccc(NC(=O)Cc3ccccc3F)cc2)c2ccccc21 (centres unmarked) [Test Compound 5, 5-Dimethylamino-1-{4-[2-(2-fluorophenyl)acetylamino]benzoyl}-2,3,4,5-tetrahydro-1H-benzazepine] | 59 nM
6 | CN(C)C1CCCN(C(=O)c2ccc(NC(=O)Cc3ccccc3[N+](=O)[O-])cc2)c2ccccc21 (centres unmarked) [Test Compound 7, 5-Dimethylamino-1-{4-[2-(2-nitrophenyl)acetylamino]benzoyl}-2,3,4,5-tetrahydro-1H-benzazepine] | 140 nM
7 | CN(C)C1CCCN(C(=O)c2ccc(NC(=O)c3ccccc3Cl)cc2Cl)c2ccc(O)cc21 (centres unmarked) [Test Compound 8, 5-Dimethylamino-7-hydroxy-1-[2-chloro-4-(2-chlorobenzoylamino)benzoyl]-2,3,4,5-tetrahydro-1H-benzazepine] | 250 nM
8 | Cc1ccccc1C(=O)Nc1ccc(C(=O)N2CCCC(OC(=O)[C@H](C)N)c3ccccc32)c(Cl)c1 (stereo partly drawn) [Test Compound 9, 5-(L-Alanyloxy)-1-[2-chloro-4-(2-methylbenzoylamino)benzoyl]-2,3,4,5-tetrahydro-1H-benzazepine hydrochloride] | 17 nM
9 | CC(=O)Oc1ccc2c(c1)C(N(C)C)CCCN2C(=O)c1ccc(NC(=O)c2ccccc2Cl)cc1Cl (centres unmarked) [Test Compound 11] | 110 nM
10 | O=C(Nc1ccc(C(=O)N2CCCC(O)(CO)c3cc(O)ccc32)c(Cl)c1)c1ccccc1Cl (centres unmarked) [Test Compound 19, 5,7-Dihydroxy-5-hydroxymethyl-1-[2-chloro-4-(2-chlorobenzoylamino)benzoyl]-2,3,4,5-tetrahydro-1H-benzazepine] | 2800 nM
11 | CN(C)C(=O)COc1ccc2c(c1)C(N(C)C)CCCN2C(=O)c1ccc(NC(=O)c2ccccc2Cl)cc1Cl (centres unmarked) [Test Compound 20, 5-Dimethylamino-7-dimethylaminocarbonylmethoxy-1-[2-chloro-4-(2-chlorobenzoylamino)benzoyl]-2,3,4,5 tetrahydro-1H-benzazepine] | 5600 nM
12 | CCOC(=O)CNC(=O)COC1CCCN(C(=O)c2ccc(NC(=O)c3ccccc3C)cc2Cl)c2ccc(F)cc21 (centres unmarked) [Test Compound 21, 5-Ethoxycarbonylmethylaminocarbonylmethoxy-7-fluoro-1-[2-chloro-4-(2-methylbenzoylamino)benzoyl]-2,3,4,5-tetrahydro-1H-benzazepine] | 6 nM
13 | Cc1ccccc1C(=O)Nc1ccc(C(=O)N2CCCC(OCC(=O)NCC(=O)O)c3cc(F)ccc32)c(Cl)c1 (centres unmarked) [Test Compound 22, 5-Carboxymethylaminocarbonylmethoxy-7-fluoro-1-[2-chloro-4-(2-methylbenzoylamino)benzoyl]-2,3,4,5-tetrahydro-1H-benzazepine] | 18 nM
14 | COC(=O)[C@@H]1CCCN1C(=O)COC1CCCN(C(=O)c2ccc(NC(=O)c3ccccc3C)cc2Cl)c2ccc(F)cc21 (stereo partly drawn) [Test Compound 23, 5-[(2-β-Methoxycarbonyl)-1-pyrrolidinylcarbonylmethoxy]-7-fluoro-1-[2-chloro-4-(2-methylbenzoylamino)benzoyl]-2,3,4,5-tetrahydro-1H-benzazepine] | 11 nM
15 | COc1cc(NC(=O)c2ccccc2Cl)ccc1C(=O)N1CCCC(CC(=O)O)c2cc(Cl)ccc21 (centres unmarked) [Test Compound 31, 5-Carboxymethyl-7-chloro-1-[2-methoxy-4-(2-chlorobenzoylamino)benzoyl]-2,3,4,5-tetrahydro-1H-benzazepine] | 19 nM
16 | Cc1ccccc1C(=O)Nc1ccc(C(=O)N2CCCC(OCCCN3CCOCC3)c3cc(F)ccc32)c(C)c1 (centres unmarked) [Test Compound 35, 5-(3-Morpholinopropoxy)-7-fluoro-1-[2-methyl-4-(2-methylbenzoylamino)benzoyl]-2,3,4,5-tetrahydro-1H-benzazepine] | 6.2 nM
17 | Cc1ccccc1C(=O)Nc1ccc(C(=O)N2CCCC(OCCCn3ccnc3)c3cc(F)ccc32)c(C)c1 (centres unmarked) [Test Compound 36, 5-[3-(1-Imidazolyl)propoxy]-7-fluoro-1-[2-methyl-4-(2-methylbenzoylamino)benzoyl]-2,3,4,5-tetrahydro-1H-benzazepine] | 7.6 nM
18 | Cc1ccccc1C(=O)Nc1ccc(C(=O)N2CCCC(CC(=O)N3CCN(C)CC3)c3cc(Cl)ccc32)c(C)c1 (centres unmarked) [Test Compound 41, 5-[(4-Methyl-1-piperazinyl)carbonylmethyl]-7-chloro-1-[2-methyl-4-(2-methylbenzoylamino]benzoyl]-2,3,4,5-tetrahydro-1H-benzazepine] | 13 nM
19 | COc1cc(NC(=O)c2ccccc2OCCCCN2CCN(C(C)=O)CC2)ccc1C(=O)N1CCCCc2cc(Cl)ccc21 [Test Compound 49] | 52 nM
20 | CC(=O)N1CCN(CCC2CCCN(C(=O)c3ccc(NC(=O)c4ccccc4C)cc3C)c3ccc(Cl)cc32)CC1 (centres unmarked) [Test Compound 53, 5-[2-(1-Acetyl-1-piperazinyl)ethyl]-7-chloro-1-[2-methyl-4-(2-methylbenzoylamino)benzoyl]-2,3,4,5-tetrahydro-1H-benzazepine hydrochloride] | 29 nM
21 | Cc1ccccc1C(=O)Nc1ccc(C(=O)N2CCCC(OCC(=O)NC3CCNCC3)c3cc(Cl)ccc32)c(C)c1 (centres unmarked) [Test Compound 57, 7-Chloro-5-[(4-piperidinyl)aminocarbonylmethoxy]-1-[2-methyl-4-(2-methylbenzoylamino)benzoyl]-2,3,4,5-tetrahydro-1H-benzazepine hydrochloride] | 9 nM
22 | Cc1ccccc1C(=O)Nc1ccc(C(=O)N2CCCC(OCC(=O)NC3CCN(C)CC3)c3cc(Cl)ccc32)c(C)c1 (centres unmarked) [Test Compound 59, 5-[(1-Methyl-4-piperidinyl)aminocarbonyl-methoxy]-7-chloro-1-[2-methyl-4-(2-methylbenzoylamino)-benzoyl]-2,3,4,5-tetrahydro-1H-benzazepine] | 9 nM
23 | Cc1ccccc1C(=O)Nc1ccc(C(=O)N2CCCC(CC(=O)NCC(N)=O)c3cc(Cl)ccc32)c(C)c1 (centres unmarked) [Test Compound 62, 5-(Carbamoylmethylaminocarbonylmethyl)-7-chloro-1-[2-methyl-4-(2-methylbenzoylamino)benzoyl]-2,3,4,5-tetrahydro-1H-benzazepine] | 3 nM
